Experimental data: a compilation of properties of binary mixtures (doi:10.1007/s10973-015-5205-9)

Assay: xn = mol fraction of the nth substance listed
Conditions: 100 kPa

CC[n+]1ccn(C)c1.F[B-](F)(F)F + CCOCCO
x2 = 0
Conditions	speed of sound [m/s]
298.15 K	1620.3
318.15 K	1573.8
328.15 K	1550.9

CCOCCO + CC[n+]1ccn(C)c1.F[B-](F)(F)F
speed of sound [m/s]
Conditions	298.15 K	308.15 K	318.15 K	328.15 K
x1 = 0.0466	1614.9	1591.3	1568	1545.2
x1 = 0.0981	1607.6	1583.8	1560.2	1537.4
x1 = 0.1487	–	1575	1551.2	1528.2
x1 = 0.1973	1589.7	1565.3	–	1517.9
x1 = 0.3049	1564.7	1539.7	–	1490.7
x1 = 0.4112	1535	1509.2	1483.5	1458.2
x1 = 0.4953	1508.4	–	1455.3	1428.8
x1 = 0.5705	1482.4	1455	1427.6	–
x1 = 0.696	1435	1406	1376.9	1347.7
x1 = 0.7952	1394.4	1363.9	–	1302.7
x1 = 0.8411	1374.8	1343.6	1311.9	–
x1 = 0.8698	1362.4	–	1298.3	1267.2
x1 = 0.9487	1327.3	1294	1259.9	1228.2
x1 = 1	1304	1269.5	1234.1	1202.2
